# Results taken from PubChem BioAssay (NCI).
#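 A five-concentration, 48-hour dose response in 96-well plates underlies each endpoint, interpolated linearly between surrounding concentrations. TGI: concentration producing complete growth inhibition.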
# Columns and labels:
# Assay in all cases: DTP human tumour cell line panel, 48 h
# UACC-257 melanoma = tested on: UACC-257 melanoma
# HL-60(TB) leukemia = tested on: HL-60(TB) leukemia
# SF-539 CNS = tested on: SF-539 CNS
# LOX IMVI melanoma = tested on: LOX IMVI melanoma
# ACHN renal = tested on: ACHN renal
# SK-OV-3 ovarian = tested on: SK-OV-3 ovarian
# A498 renal = tested on: A498 renal
# NCI/ADR-RES ovarian = tested on: NCI/ADR-RES ovarian
# IGROV1 ovarian = tested on: IGROV1 ovarian
# SF-295 CNS = tested on: SF-295 CNS
# SF-268 CNS = tested on: SF-268 CNS
# OVCAR-4 ovarian = tested on: OVCAR-4 ovarian
# UACC-62 melanoma = tested on: UACC-62 melanoma
# T-47D breast = tested on: T-47D breast
# MDA-MB-435 = tested on: MDA-MB-435
# SNB-19 CNS = tested on: SNB-19 CNS
# SR leukemia = tested on: SR leukemia
# BT-549 breast = tested on: BT-549 breast
# SN12C renal = tested on: SN12C renal
# A549 NSCLC = tested on: A549 NSCLC
# MDA-N = tested on: MDA-N
# CCRF-CEM leukemia = tested on: CCRF-CEM leukemia
# PC-3 prostate = tested on: PC-3 prostate
# SK-MEL-5 melanoma = tested on: SK-MEL-5 melanoma
# EKVX NSCLC = tested on: EKVX NSCLC
# MALME-3M melanoma = tested on: MALME-3M melanoma
# DU-145 prostate = tested on: DU-145 prostate
# HCC-2998 colon = tested on: HCC-2998 colon
# HS 578T breast = tested on: HS 578T breast
# RPMI-8226 leukemia = tested on: RPMI-8226 leukemia
# SK-MEL-28 melanoma = tested on: SK-MEL-28 melanoma
# UO-31 renal = tested on: UO-31 renal
# NCI-H23 lung = tested on: NCI-H23 lung
# NCI-H522 lung = tested on: NCI-H522 lung
# OVCAR-5 ovarian = tested on: OVCAR-5 ovarian
# HOP-62 NSCLC = tested on: HOP-62 NSCLC
# NCI-H460 lung = tested on: NCI-H460 lung
# RXF 393 renal = tested on: RXF 393 renal
# MDA-MB-231 breast = tested on: MDA-MB-231 breast
# OVCAR-8 ovarian = tested on: OVCAR-8 ovarian
# M14 melanoma = tested on: M14 melanoma
# OVCAR-3 ovarian = tested on: OVCAR-3 ovarian
# SNB-75 CNS = tested on: SNB-75 CNS
# CAKI-1 renal = tested on: CAKI-1 renal
# COLO 205 colon = tested on: COLO 205 colon
# HCT-15 colon = tested on: HCT-15 colon
# MOLT-4 leukemia = tested on: MOLT-4 leukemia
# TK-10 renal = tested on: TK-10 renal
# K-562 leukemia = tested on: K-562 leukemia
# 786-0 renal = tested on: 786-0 renal
# SW-620 colon = tested on: SW-620 colon
# KM12 colon = tested on: KM12 colon
# U251 CNS = tested on: U251 CNS
# HT29 colon = tested on: HT29 colon
# MCF7 breast = tested on: MCF7 breast
# NCI-H226 lung = tested on: NCI-H226 lung
# HOP-92 NSCLC = tested on: HOP-92 NSCLC
# HCT-116 colon = tested on: HCT-116 colon
# SK-MEL-2 melanoma = tested on: SK-MEL-2 melanoma
smiles,measurement,setting,value
CC(=O)O[C@H]1C(=O)[C@@]2(C)[C@H]([C@H](OC(=O)c3ccccc3)[C@]3(O)C[C@H](OC(=O)[C@H](O)[C@@H](NC(=O)C(C)(O)C(C)O)c4ccccc4)C(C)=C1C3(C)C)[C@]1(OC(C)=O)CO[C@@H]1C[C@@H]2O (some centres not stated),TGI,UACC-257 melanoma,> 50 µM
same,TGI,HL-60(TB) leukemia,0.298 µM
same,TGI,SF-539 CNS,0.49 µM
same,TGI,LOX IMVI melanoma,> 50 µM
same,TGI,ACHN renal,> 50 µM
same,TGI,SK-OV-3 ovarian,10.9 µM
same,TGI,A498 renal,> 50 µM
same,TGI,NCI/ADR-RES ovarian,> 50 µM
same,TGI,IGROV1 ovarian,> 50 µM
same,TGI,SF-295 CNS,16.5 µM
same,TGI,SF-268 CNS,> 50 µM
same,TGI,OVCAR-4 ovarian,> 50 µM
same,TGI,UACC-62 melanoma,> 50 µM
same,TGI,T-47D breast,> 50 µM
same,TGI,MDA-MB-435,0.169 µM
same,TGI,SNB-19 CNS,> 50 µM
same,TGI,SR leukemia,> 15.9 µM
same,TGI,BT-549 breast,3.45 µM
same,TGI,SN12C renal,> 50 µM
same,TGI,A549 NSCLC,> 50 µM
same,TGI,MDA-N,0.0744 µM
same,TGI,CCRF-CEM leukemia,> 50 µM
same,TGI,PC-3 prostate,> 50 µM
same,TGI,SK-MEL-5 melanoma,> 50 µM
same,TGI,EKVX NSCLC,> 50 µM
same,TGI,MALME-3M melanoma,> 50 µM
same,TGI,DU-145 prostate,> 12.1 µM
same,TGI,HCC-2998 colon,0.743 µM
same,TGI,HS 578T breast,0.737 µM
same,TGI,RPMI-8226 leukemia,> 16.6 µM
same,TGI,SK-MEL-28 melanoma,> 50 µM
same,TGI,UO-31 renal,> 50 µM
same,TGI,NCI-H23 lung,> 50 µM
same,TGI,NCI-H522 lung,0.341 µM
same,TGI,OVCAR-5 ovarian,4.65 µM
same,TGI,HOP-62 NSCLC,5.21 µM
same,TGI,NCI-H460 lung,> 50 µM
same,TGI,RXF 393 renal,1.81 µM
same,TGI,MDA-MB-231 breast,43.1 µM
same,TGI,OVCAR-8 ovarian,> 50 µM
same,TGI,M14 melanoma,> 50 µM
same,TGI,OVCAR-3 ovarian,0.437 µM
same,TGI,SNB-75 CNS,0.398 µM
same,TGI,CAKI-1 renal,> 50 µM
same,TGI,COLO 205 colon,0.254 µM
same,TGI,HCT-15 colon,> 50 µM
same,TGI,MOLT-4 leukemia,> 50 µM
same,TGI,TK-10 renal,> 50 µM
same,TGI,K-562 leukemia,> 50 µM
same,TGI,786-0 renal,> 50 µM
same,TGI,SW-620 colon,> 50 µM
CCOC(=O)c1nc2ccc(C(F)(F)F)cc2nc1NCc1ccc(F)cc1,TGI,UACC-257 melanoma,> 100 µM
same,TGI,HL-60(TB) leukemia,> 100 µM
same,TGI,KM12 colon,> 100 µM
same,TGI,SF-539 CNS,> 100 µM
same,TGI,LOX IMVI melanoma,> 100 µM
same,TGI,ACHN renal,> 100 µM
same,TGI,U251 CNS,> 100 µM
same,TGI,SK-OV-3 ovarian,> 100 µM
same,TGI,NCI/ADR-RES ovarian,> 100 µM
same,TGI,IGROV1 ovarian,77.3 µM
same,TGI,SF-295 CNS,> 100 µM
same,TGI,SF-268 CNS,53.9 µM
same,TGI,OVCAR-4 ovarian,90.9 µM
same,TGI,UACC-62 melanoma,> 100 µM
same,TGI,T-47D breast,84.8 µM
same,TGI,MDA-MB-435,> 100 µM
same,TGI,SNB-19 CNS,> 100 µM
same,TGI,SR leukemia,> 100 µM
same,TGI,SN12C renal,> 100 µM
same,TGI,A549 NSCLC,> 100 µM
same,TGI,MDA-N,> 100 µM
same,TGI,CCRF-CEM leukemia,> 100 µM
same,TGI,PC-3 prostate,> 100 µM
same,TGI,EKVX NSCLC,> 100 µM
same,TGI,MALME-3M melanoma,> 100 µM
same,TGI,DU-145 prostate,> 100 µM
same,TGI,HCC-2998 colon,78.3 µM
same,TGI,HS 578T breast,86.5 µM
same,TGI,RPMI-8226 leukemia,> 100 µM
same,TGI,SK-MEL-28 melanoma,> 100 µM
same,TGI,UO-31 renal,> 100 µM
same,TGI,NCI-H23 lung,> 100 µM
same,TGI,NCI-H522 lung,88.9 µM
same,TGI,OVCAR-5 ovarian,> 100 µM
same,TGI,HT29 colon,> 100 µM
same,TGI,HOP-62 NSCLC,> 100 µM
same,TGI,NCI-H460 lung,75.4 µM
same,TGI,MCF7 breast,> 100 µM
same,TGI,RXF 393 renal,> 100 µM
same,TGI,MDA-MB-231 breast,> 100 µM
same,TGI,OVCAR-8 ovarian,> 100 µM
same,TGI,NCI-H226 lung,> 100 µM
same,TGI,M14 melanoma,> 100 µM
same,TGI,OVCAR-3 ovarian,> 100 µM
same,TGI,SNB-75 CNS,> 100 µM
same,TGI,CAKI-1 renal,> 100 µM
same,TGI,HOP-92 NSCLC,29.2 µM
same,TGI,HCT-116 colon,> 100 µM
same,TGI,COLO 205 colon,81 µM
same,TGI,HCT-15 colon,> 100 µM
same,TGI,SK-MEL-2 melanoma,> 100 µM
same,TGI,MOLT-4 leukemia,> 100 µM
same,TGI,TK-10 renal,> 100 µM
same,TGI,K-562 leukemia,> 100 µM
same,TGI,786-0 renal,> 100 µM
same,TGI,SW-620 colon,> 100 µM
